Measured values published in patent publication US20120121591A1 (priority 2009, published 2012).

What was measured:
Assay type in all cases: cell-based
[1] = test system: IL-2 secretion from T cells in human whole blood; conditions: read-out: WB (IL-2) IC50 (nM, Avg)
[2] = target: hKv1.3 (Homo sapiens, UniProt P22001); assay: cell-based; conditions: Kv1.3 (IWQ) IC50 (nM, Avg)
[3] = test system: IFN-g secretion from T cells in human whole blood; conditions: read-out: WB (IFNg) IC50 (nM, Avg)

hKv1.3, sequence (P22001 whole entry): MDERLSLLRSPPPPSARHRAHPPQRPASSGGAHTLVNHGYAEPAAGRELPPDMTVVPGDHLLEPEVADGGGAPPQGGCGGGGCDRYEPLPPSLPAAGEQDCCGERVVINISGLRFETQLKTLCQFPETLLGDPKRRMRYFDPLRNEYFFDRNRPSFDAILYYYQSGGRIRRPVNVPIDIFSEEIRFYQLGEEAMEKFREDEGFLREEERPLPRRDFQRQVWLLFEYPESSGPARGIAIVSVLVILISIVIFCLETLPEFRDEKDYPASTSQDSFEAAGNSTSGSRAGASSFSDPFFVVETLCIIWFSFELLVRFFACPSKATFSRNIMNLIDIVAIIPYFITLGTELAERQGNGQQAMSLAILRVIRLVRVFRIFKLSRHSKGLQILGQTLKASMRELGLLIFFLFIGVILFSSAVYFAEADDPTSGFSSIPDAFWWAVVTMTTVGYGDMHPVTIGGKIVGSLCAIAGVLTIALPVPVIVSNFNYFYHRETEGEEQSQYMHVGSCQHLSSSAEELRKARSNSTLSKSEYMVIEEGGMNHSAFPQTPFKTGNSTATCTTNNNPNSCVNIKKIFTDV

SMILES | IC50 [1] [nM] | IC50 [2] [nM] | IC50 [3] [nM]
CC[C@H](C)[C@@H]1NC(=O)[C@@H](NC(=O)[C@H](CO)NC(=O)[C@@H](N)CCCNC(=N)N)CSSC[C@@H](C(N)=O)NC(=O)[C@H]([C@@H](C)O)NC(=O)CNC(=O)[C@@H]2CSSC[C@@H]3NC(=O)[C@H](CCCCN)NC(=O)[C@H](Cc4ccccc4)NC(=O)[C@H](C)NC(=O)[C@H]([C@@H](C)O)NC(=O)[C@H](CSSC[C@H](NC(=O)[C@H](Cc4ccccc4)NC(=O)[C@H](Cc4cccc5ccccc45)NC(=O)[C@H](CC(C)C)NC(=O)[C@H](CCCNC(=N)N)NC(=O)[C@H](Cc4ccc(O)cc4)NC(=O)[C@H](CCCCN)NC(=O)[C@H](CCSC)NC(=O)[C@H](CO)NC(=O)[C@H](Cc4c[nH]cn4)NC(=O)[C@H](CCCCN)NC3=O)C(=O)N[C@@H](CCCCN)C(=O)N[C@@H](CCCCN)C(=O)N[C@@H]([C@@H](C)O)C(=O)N2)NC(=O)[C@H](CCCNC(=N)N)NC(=O)[C@H](CO)NC(=O)[C@H](CCCCN)NC(=O)[C@@H]2CCCN2C(=O)[C@H]([C@@H](C)CC)NC(=O)[C@H]([C@@H](C)O)NC(=O)[C@H](CC(=O)O)NC1=O [[Lys16,29; 1-Nal26]ShK-amide] | 0.808 | 0.341 | 1.98
CCCC[C@@H]1NC(=O)[C@H](CO)NC(=O)[C@H](Cc2c[nH]cn2)NC(=O)[C@H](CCC(=O)O)NC(=O)[C@@H]2CSSC[C@@H]3NC(=O)[C@H]([C@@H](C)O)NC(=O)[C@H](CCCCN)NC(=O)[C@H](CCCNC(=N)N)NC(=O)[C@H](CSSC[C@H](NC(=O)[C@H](CCCNC(=N)N)NC(=O)[C@H](CO)NC(=O)[C@H](CCCCN)NC(=O)[C@@H]4CCCN4C(=O)[C@H]([C@@H](C)CC)NC(=O)[C@H]([C@@H](C)O)NC(=O)[C@H](CC(=O)O)NC(=O)[C@H](CCC(=O)O)NC(=O)[C@@H](NC(=O)[C@H](CO)NC(=O)[C@@H](N)CCCNC(=N)N)CSSC[C@@H](C(N)=O)NC(=O)[C@H]([C@@H](C)O)NC(=O)CNC3=O)C(=O)N[C@@H]([C@@H](C)O)C(=O)N[C@@H](C)C(=O)N[C@@H](C)C(=O)N[C@@H](CCCCN)C(=O)N2)NC(=O)[C@H](Cc2ccccc2)NC(=O)[C@H](CO)NC(=O)[C@H](CC(C)C)NC(=O)[C@H](CCCNC(=N)N)NC(=O)[C@H](Cc2ccc(O)cc2)NC(=O)[C@H](CCCCN)NC1=O [[Glu4,18,A1a15,Lys16,Nle21]ShK-amide] | 1.22 | 0.346 | 1.6
CC[C@H](C)[C@@H]1NC(=O)[C@@H](NC(=O)[C@H](CO)NC(=O)[C@@H](N)CCCNC(=N)N)CSSC[C@@H](C(N)=O)NC(=O)[C@H]([C@@H](C)O)NC(=O)CNC(=O)[C@@H]2CSSC[C@@H]3NC(=O)[C@H](CCCCN)NC(=O)[C@H](Cc4ccccc4)NC(=O)[C@H](C)NC(=O)[C@H]([C@@H](C)O)NC(=O)[C@H](CSSC[C@H](NC(=O)[C@H](Cc4ccccc4)NC(=O)[C@H](Cc4ccc5ccccc5c4)NC(=O)[C@H](CC(C)C)NC(=O)[C@H](CCCNC(=N)N)NC(=O)[C@H](Cc4ccc(O)cc4)NC(=O)[C@H](CCCCN)NC(=O)[C@H](CCSC)NC(=O)[C@H](CO)NC(=O)[C@H](Cc4c[nH]cn4)NC(=O)[C@H](CCCCN)NC3=O)C(=O)N[C@@H](CCCCN)C(=O)N[C@@H](CCCCN)C(=O)N[C@@H]([C@@H](C)O)C(=O)N2)NC(=O)[C@H](CCCNC(=N)N)NC(=O)[C@H](CO)NC(=O)[C@H](CCCCN)NC(=O)[C@@H]2CCCN2C(=O)[C@H]([C@@H](C)CC)NC(=O)[C@H]([C@@H](C)O)NC(=O)[C@H](CC(=O)O)NC1=O [[Lys16,29;2-Na126]ShK-amide] | 0.222 | 0.762 | 0.148
CC[C@H](C)[C@@H]1NC(=O)[C@@H](NC(=O)[C@H](CO)NC(=O)[C@@H](N)CCCNC(=N)N)CSSC[C@@H](C(=O)O)NC(=O)[C@H]([C@@H](C)O)NC(=O)CNC(=O)[C@@H]2CSSC[C@@H]3NC(=O)[C@H](CCC(N)=O)NC(=O)[C@H](Cc4ccccc4)NC(=O)[C@H](CCCCN)NC(=O)[C@H]([C@@H](C)O)NC(=O)[C@H](CSSC[C@H](NC(=O)[C@H](Cc4ccccc4)NC(=O)[C@H](CO)NC(=O)[C@H](CC(C)C)NC(=O)[C@H](CCCNC(=N)N)NC(=O)[C@H](Cc4ccc(O)cc4)NC(=O)[C@H](CCCCN)NC(=O)[C@H](CCSC)NC(=O)[C@H](CO)NC(=O)[C@H](Cc4c[nH]cn4)NC(=O)[C@H](CCCCN)NC3=O)C(=O)N[C@@H](CCCNC(=N)N)C(=O)N[C@@H](CCCCN)C(=O)N[C@@H]([C@@H](C)O)C(=O)N2)NC(=O)[C@H](CCCNC(=N)N)NC(=O)[C@H](CO)NC(=O)[C@H](CCCCN)NC(=O)[C@@H]2CCCN2C(=O)[C@H]([C@@H](C)CC)NC(=O)[C@H]([C@@H](C)O)NC(=O)[C@H](CC(=O)O)NC1=O [[Lys14]ShK] | 0.075 | 0.073 | 0.202
CC[C@H](C)[C@@H]1NC(=O)[C@@H](NC(=O)[C@H](CO)NC(=O)[C@@H](N)CCCNC(=N)N)CSSC[C@@H](C(=O)O)NC(=O)[C@H]([C@@H](C)O)NC(=O)CNC(=O)[C@@H]2CSSC[C@@H]3NC(=O)[C@H](CCC(N)=O)NC(=O)[C@H](Cc4ccccc4)NC(=O)[C@H](C)NC(=O)[C@H]([C@@H](C)O)NC(=O)[C@H](CSSC[C@H](NC(=O)[C@H](Cc4ccccc4)NC(=O)[C@H](CO)NC(=O)[C@H](CC(C)C)NC(=O)[C@H](CCCNC(=N)N)NC(=O)[C@H](Cc4ccc(O)cc4)NC(=O)[C@H](CCCCN)NC(=O)[C@H](CCSC)NC(=O)[C@H](CO)NC(=O)[C@H](Cc4c[nH]cn4)NC(=O)[C@H](CCCCN)NC3=O)C(=O)N[C@@H](CCCNC(=N)N)C(=O)N[C@@H](C)C(=O)N[C@@H]([C@@H](C)O)C(=O)N2)NC(=O)[C@H](CCCNC(=N)N)NC(=O)[C@H](CO)NC(=O)[C@H](CCCCN)NC(=O)[C@@H]2CCCN2C(=O)[C@H]([C@@H](C)CC)NC(=O)[C@H]([C@@H](C)O)NC(=O)[C@H](CC(=O)O)NC1=O [[Ala30]ShK] | 0.258 | 0.178 | 0.394
CCCC[C@@H]1NC(=O)[C@H](CO)NC(=O)[C@H](Cc2c[nH]cn2)NC(=O)[C@H](CCCCN)NC(=O)[C@@H]2CSSC[C@@H]3NC(=O)[C@H]([C@@H](C)O)NC(=O)[C@H](CCC(=O)O)NC(=O)[C@H](CCCNC(=N)N)NC(=O)[C@H](CSSC[C@H](NC(=O)[C@H](CCCNC(=N)N)NC(=O)[C@H](CO)NC(=O)[C@H](CCCCN)NC(=O)[C@@H]4CCCN4C(=O)[C@H]([C@@H](C)CC)NC(=O)[C@H]([C@@H](C)O)NC(=O)[C@H](CC(=O)O)NC(=O)[C@H]([C@@H](C)CC)NC(=O)[C@@H](NC(=O)[C@H](CO)NC(=O)[C@@H](N)CCCNC(=N)N)CSSC[C@@H](C(N)=O)NC(=O)[C@H]([C@@H](C)O)NC(=O)CNC3=O)C(=O)N[C@@H]([C@@H](C)O)C(=O)N[C@@H](C)C(=O)N[C@@H](Cc3ccccc3)C(=O)N[C@@H](CCCCN)C(=O)N2)NC(=O)[C@H](Cc2ccccc2)NC(=O)[C@H](CO)NC(=O)[C@H](CC(C)C)NC(=O)[C@H](CCCNC(=N)N)NC(=O)[C@H](Cc2ccc(O)cc2)NC(=O)[C@H](CCCCN)NC1=O [[Lys16, Nle21,Glu30]ShK-amide] | 3.18 | 1.88 | 5.03
CC[C@H](C)[C@@H]1NC(=O)[C@H]([C@@H](C)O)NC(=O)[C@H](CC(=O)O)NC(=O)[C@H](CCC(=O)O)NC(=O)[C@@H](NC(=O)[C@H](CO)NC(=O)[C@@H](N)CCCNC(=N)N)CSSC[C@@H](C(=O)O)NC(=O)[C@H]([C@@H](C)O)NC(=O)CNC(=O)[C@@H]2CSSC[C@@H]3NC(=O)[C@H](CCCCN)NC(=O)[C@H](C)NC(=O)[C@H](C)NC(=O)[C@H]([C@@H](C)O)NC(=O)[C@H](CSSC[C@H](NC(=O)[C@H](Cc4ccccc4)NC(=O)[C@H](CO)NC(=O)[C@H](CC(C)C)NC(=O)[C@H](CCCNC(=N)N)NC(=O)[C@H](Cc4ccc(O)cc4)NC(=O)[C@H](CCCCN)NC(=O)[C@H](CCSC)NC(=O)[C@H](CO)NC(=O)[C@H](Cc4c[nH]cn4)NC(=O)[C@H](CCCCN)NC3=O)C(=O)N[C@@H](CCCNC(=N)N)C(=O)N[C@@H](CCCNC(=N)N)C(=O)N[C@@H]([C@@H](C)O)C(=O)N2)NC(=O)[C@H](CCCNC(=N)N)NC(=O)[C@H](CCCNC(=N)N)NC(=O)[C@H](CCCCN)NC(=O)[C@@H]2CCCN2C1=O [[Glu4,Arg10,30,A1a15,Lys16]ShK] | 0.209 | 0.14 | 0.305
CC[C@H](C)[C@@H]1NC(=O)[C@@H](NC(=O)[C@H](CO)NC(=O)[C@@H](N)CCCNC(=N)N)CSSC[C@@H](C(=O)O)NC(=O)[C@H]([C@@H](C)O)NC(=O)CNC(=O)[C@@H]2CSSC[C@@H]3NC(=O)[C@H](CCC(N)=O)NC(=O)[C@H](Cc4ccccc4)NC(=O)[C@H](C)NC(=O)[C@H]([C@@H](C)O)NC(=O)[C@H](CSSC[C@H](NC(=O)[C@H](Cc4ccccc4)NC(=O)[C@H](CO)NC(=O)[C@H](CC(C)C)NC(=O)[C@H](CCCNC(=N)N)NC(=O)[C@H](Cc4ccc(O)cc4)NC(=O)[C@H](CCCCN)NC(=O)[C@H](CCSC)NC(=O)[C@H](CCCCN)NC(=O)[C@H](Cc4c[nH]cn4)NC(=O)[C@H](CCCCN)NC3=O)C(=O)N[C@@H](CCCNC(=N)N)C(=O)N[C@@H](CCCCN)C(=O)N[C@@H]([C@@H](C)O)C(=O)N2)NC(=O)[C@H](CCCNC(=N)N)NC(=O)[C@H](CO)NC(=O)[C@H](CCCCN)NC(=O)[C@@H]2CCCN2C(=O)[C@H]([C@@H](C)CC)NC(=O)[C@H]([C@@H](C)O)NC(=O)[C@H](CC(=O)O)NC1=O [[Lys20]ShK] | 0.108 | 1.33 | 0.192
